Measurements from publication PMC7935272 (PLoS Pathogens, 2021).
“And” between values parts separate entries of the source, which are not always exact repeats. Identical values can stand only once. “Also recorded” adds a separate entry of the source. Like-named read-outs stand apart in the source and are kept apart here.

Key:
[1] = cited from earlier work
[2] = biological target: RSV L (Human respiratory syncytial virus A, UniProt P28887); experiment: Biolayer interferometry, RSV L specificity control; type: binding; settings: for steady-state BLI sensor response: S7 C
Chain of RSV L (P03421 whole entry): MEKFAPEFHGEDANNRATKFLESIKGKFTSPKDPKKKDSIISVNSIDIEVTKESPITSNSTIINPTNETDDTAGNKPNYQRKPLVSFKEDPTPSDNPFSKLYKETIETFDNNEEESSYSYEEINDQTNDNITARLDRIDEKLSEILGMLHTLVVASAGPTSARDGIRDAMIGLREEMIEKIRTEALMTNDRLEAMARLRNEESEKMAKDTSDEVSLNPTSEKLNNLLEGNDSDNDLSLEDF
Chain of RSV L (P28887 whole entry): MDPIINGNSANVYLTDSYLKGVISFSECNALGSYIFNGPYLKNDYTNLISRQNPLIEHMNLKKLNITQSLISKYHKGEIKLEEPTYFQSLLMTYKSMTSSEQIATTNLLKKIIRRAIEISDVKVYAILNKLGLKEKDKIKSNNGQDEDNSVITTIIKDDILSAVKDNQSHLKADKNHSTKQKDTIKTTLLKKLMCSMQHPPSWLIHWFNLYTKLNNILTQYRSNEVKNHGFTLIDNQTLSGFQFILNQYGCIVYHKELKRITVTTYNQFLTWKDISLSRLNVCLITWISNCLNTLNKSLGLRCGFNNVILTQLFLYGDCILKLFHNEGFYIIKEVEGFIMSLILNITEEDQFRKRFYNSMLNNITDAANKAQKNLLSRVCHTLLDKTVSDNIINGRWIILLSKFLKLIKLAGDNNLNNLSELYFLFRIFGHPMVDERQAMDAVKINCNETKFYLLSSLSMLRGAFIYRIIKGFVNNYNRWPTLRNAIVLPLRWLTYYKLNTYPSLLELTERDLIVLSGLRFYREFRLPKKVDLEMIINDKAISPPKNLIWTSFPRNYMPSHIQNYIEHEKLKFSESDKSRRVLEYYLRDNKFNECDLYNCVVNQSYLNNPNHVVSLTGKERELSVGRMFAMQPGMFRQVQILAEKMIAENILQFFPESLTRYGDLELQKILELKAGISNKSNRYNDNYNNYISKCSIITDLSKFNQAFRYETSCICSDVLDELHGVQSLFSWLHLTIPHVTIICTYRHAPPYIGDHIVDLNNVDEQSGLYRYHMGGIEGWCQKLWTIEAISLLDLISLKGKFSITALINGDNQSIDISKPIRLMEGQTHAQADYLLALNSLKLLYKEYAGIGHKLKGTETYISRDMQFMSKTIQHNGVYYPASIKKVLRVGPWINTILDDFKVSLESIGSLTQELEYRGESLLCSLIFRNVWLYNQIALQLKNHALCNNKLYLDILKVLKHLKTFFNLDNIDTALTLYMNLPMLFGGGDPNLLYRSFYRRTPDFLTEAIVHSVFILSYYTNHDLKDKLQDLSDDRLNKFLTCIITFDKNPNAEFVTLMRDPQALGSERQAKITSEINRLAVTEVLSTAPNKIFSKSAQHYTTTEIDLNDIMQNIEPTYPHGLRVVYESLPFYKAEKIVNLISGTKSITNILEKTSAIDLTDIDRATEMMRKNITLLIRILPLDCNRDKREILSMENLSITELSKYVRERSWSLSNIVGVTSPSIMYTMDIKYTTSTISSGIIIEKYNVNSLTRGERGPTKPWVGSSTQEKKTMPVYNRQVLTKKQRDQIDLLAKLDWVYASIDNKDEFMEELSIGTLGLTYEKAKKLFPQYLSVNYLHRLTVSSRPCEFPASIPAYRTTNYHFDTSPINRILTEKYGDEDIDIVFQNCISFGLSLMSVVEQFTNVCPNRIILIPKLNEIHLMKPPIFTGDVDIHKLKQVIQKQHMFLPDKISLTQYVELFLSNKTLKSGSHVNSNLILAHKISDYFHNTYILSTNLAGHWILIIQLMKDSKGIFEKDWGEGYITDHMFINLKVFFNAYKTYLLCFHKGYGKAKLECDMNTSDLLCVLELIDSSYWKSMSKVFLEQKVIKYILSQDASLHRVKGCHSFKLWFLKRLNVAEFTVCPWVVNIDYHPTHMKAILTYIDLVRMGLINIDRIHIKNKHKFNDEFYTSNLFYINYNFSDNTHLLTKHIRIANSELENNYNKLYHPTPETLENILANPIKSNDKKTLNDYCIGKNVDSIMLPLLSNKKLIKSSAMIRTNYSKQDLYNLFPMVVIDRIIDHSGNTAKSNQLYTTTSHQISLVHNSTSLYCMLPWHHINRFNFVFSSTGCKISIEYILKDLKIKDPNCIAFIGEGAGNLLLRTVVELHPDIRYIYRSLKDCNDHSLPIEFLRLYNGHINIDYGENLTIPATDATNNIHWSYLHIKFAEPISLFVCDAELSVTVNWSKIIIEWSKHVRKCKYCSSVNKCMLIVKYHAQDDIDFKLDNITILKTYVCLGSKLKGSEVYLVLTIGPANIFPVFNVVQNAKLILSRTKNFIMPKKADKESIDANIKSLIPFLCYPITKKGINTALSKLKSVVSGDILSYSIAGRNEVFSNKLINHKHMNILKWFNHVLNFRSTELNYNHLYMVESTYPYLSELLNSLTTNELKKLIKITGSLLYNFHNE

[3] = test system: MeV; settings: cited from earlier work
[4] = test system: MeV; experiment: Antiviral dose-response assay, MeV-NanoPEST reporter virus in Vero-hSLAM cells
Protocol: Compound was added in three-fold dilutions to 96-well plates seeded with Vero-hSLAM cells (1.1 × 10^4 per well), followed by infection (MOI = 0.2 TCID50 units per cell) with a recombinant MeV-NanoPEST reporter virus harboring Nano luciferase [36]. After 30-hour incubation, Nano luciferase signals were quantified using a BioTek Synergy H1 multimode plate reader. Raw data were normalized according to norm. value [%] = (RLUsample—RLUmin) / (RLUmax—RLUmin)*100, with RLUmax representing vehicle (DMSO) volume equivalent-treated infected wells and RLUmin representing infected wells exposed to 1 mg/ml cycloheximide. Four-parameter variable slope regression modeling was used to determine EC50 and EC90 concentrations.

[5] = test system: MeV mRNA transcripts (P, H, L); experiment: qRT-PCR of MeV primary transcription in infected Vero-hSLAM cells; type: cell-based; settings: for Transcription gradient, H mRNA, Predicted (LS) mean 2 / Transcription gradient, L mRNA, Predicted (LS) mean 2 / Transcription gradient, P mRNA, Predicted (LS) mean 2: Figure 3I, N2 3
Protocol: Total RNA was extracted four hours after infection using Trizol and subjected to reverse transcription using either oligo-dT primers. Subsequent qPCR used primer pairs specific for MeV P mRNA, MeV H mRNA, MeV L mRNA, or human GAPDH mRNA, respectively. qPCR was performed using an Applied Biosystems 7500 Real-Time PCR System with a StepOnePlus Real-Time PCR System. Samples were normalized for GAPDH.

[6] = biological target: T1, MeV L (Measles virus, UniProt P12576); experiment: MeV minigenome dose-response assay, L WT; type: cell-based; settings: 40 h, ERDRP-0519 0.005 µM; L WT; Figure 1D; read-out: minigenome activity, individual repeat
T1 construct: expressed in transfected cells; host or cells: BSR-T7/5
T1 sequence (P03422 whole entry): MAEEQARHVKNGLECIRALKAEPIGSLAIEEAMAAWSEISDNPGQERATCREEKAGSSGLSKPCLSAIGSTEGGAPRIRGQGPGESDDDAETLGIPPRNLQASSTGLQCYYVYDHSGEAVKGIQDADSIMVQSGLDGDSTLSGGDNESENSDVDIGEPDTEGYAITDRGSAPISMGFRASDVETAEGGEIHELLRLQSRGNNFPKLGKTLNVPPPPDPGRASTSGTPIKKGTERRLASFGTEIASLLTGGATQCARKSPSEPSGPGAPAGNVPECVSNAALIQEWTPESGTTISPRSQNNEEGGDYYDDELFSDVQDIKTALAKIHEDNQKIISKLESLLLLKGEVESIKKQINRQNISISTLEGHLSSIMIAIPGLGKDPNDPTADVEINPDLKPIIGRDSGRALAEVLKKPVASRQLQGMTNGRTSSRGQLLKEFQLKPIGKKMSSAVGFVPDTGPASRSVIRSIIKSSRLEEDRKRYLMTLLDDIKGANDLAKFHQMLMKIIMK
T1 sequence (P12576 whole entry): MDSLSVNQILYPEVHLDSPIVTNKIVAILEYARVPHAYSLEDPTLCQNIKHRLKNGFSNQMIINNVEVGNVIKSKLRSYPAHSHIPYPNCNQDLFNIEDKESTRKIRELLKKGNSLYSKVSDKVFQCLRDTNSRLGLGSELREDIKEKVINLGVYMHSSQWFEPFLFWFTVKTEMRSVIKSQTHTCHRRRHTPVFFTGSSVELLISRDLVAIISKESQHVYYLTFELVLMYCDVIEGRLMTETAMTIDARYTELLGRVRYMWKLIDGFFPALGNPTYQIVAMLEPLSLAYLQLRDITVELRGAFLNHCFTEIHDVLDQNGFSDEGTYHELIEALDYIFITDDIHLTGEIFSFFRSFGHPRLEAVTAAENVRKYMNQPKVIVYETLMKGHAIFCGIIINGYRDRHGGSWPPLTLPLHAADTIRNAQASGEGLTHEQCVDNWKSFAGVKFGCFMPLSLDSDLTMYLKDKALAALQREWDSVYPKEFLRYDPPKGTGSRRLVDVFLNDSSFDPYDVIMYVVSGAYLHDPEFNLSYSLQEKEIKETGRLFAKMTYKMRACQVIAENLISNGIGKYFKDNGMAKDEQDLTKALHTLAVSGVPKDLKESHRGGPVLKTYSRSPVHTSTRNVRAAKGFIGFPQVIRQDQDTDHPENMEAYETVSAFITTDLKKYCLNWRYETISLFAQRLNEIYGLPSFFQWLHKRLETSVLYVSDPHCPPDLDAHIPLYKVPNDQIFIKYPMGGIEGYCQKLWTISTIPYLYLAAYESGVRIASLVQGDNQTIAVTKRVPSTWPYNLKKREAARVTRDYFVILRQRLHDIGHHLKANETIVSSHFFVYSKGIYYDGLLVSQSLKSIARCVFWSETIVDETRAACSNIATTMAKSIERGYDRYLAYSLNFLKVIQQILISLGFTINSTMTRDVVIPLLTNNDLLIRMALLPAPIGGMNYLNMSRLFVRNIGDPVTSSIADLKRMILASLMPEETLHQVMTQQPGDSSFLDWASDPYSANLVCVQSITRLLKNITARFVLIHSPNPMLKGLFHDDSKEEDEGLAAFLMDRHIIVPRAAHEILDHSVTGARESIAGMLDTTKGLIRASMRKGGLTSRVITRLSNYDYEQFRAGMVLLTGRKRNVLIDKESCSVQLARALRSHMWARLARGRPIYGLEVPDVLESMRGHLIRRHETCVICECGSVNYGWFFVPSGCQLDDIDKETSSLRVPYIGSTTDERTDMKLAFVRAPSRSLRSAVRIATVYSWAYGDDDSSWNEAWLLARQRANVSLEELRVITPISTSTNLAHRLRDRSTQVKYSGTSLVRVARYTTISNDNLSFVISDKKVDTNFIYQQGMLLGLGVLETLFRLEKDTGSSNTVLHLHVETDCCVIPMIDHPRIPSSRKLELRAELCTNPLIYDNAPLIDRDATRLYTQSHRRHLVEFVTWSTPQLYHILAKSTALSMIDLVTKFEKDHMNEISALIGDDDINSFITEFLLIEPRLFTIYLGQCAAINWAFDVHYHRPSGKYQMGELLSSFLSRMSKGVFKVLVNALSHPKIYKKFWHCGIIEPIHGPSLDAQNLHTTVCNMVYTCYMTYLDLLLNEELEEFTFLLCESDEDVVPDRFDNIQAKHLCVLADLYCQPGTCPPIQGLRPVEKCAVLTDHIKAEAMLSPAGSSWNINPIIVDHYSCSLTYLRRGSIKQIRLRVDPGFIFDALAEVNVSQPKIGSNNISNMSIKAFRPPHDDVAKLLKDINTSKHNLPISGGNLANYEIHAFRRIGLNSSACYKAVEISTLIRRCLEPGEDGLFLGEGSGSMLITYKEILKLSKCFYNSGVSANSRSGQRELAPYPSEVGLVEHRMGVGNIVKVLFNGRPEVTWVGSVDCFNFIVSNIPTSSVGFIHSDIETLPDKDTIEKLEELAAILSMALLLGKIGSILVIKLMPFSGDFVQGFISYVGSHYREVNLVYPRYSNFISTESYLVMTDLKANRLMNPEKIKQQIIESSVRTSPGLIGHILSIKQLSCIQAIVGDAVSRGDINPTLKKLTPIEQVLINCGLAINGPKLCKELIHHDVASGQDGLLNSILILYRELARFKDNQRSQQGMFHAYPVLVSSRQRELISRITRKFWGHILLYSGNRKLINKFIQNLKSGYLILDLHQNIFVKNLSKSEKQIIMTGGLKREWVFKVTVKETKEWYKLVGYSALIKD

## Cn1nc(C(F)(F)F)cc1C(=O)Nc1ccc(S(=O)(=O)N2CCCC[C@H]2CCN2CCOCC2)cc1 [ERDRP-0519, S(=O)(=O)(N1[C@H](CCN2CCOCC2)CCCC1)c1ccc(NC(=O)c2n(C)nc(C(F)(F)F)c2)cc1]
[1]
  CC50: 75 µM
[2]; BLI specificity control
  binding to RSV polymerase: No appreciable binding; also recorded: no binding was detected
[2]; 0.003 uM
  steady-state BLI sensor response: 0.004459
[2]; 0.009 uM
  steady-state BLI sensor response: 0.00801
[2]; 0.027 uM
  steady-state BLI sensor response: 0.008695
[2]; 0.24 uM
  steady-state BLI sensor response: 0.01534
[2]; 0.74 uM
  steady-state BLI sensor response: 0.01342
[2]; 2.22 uM
  steady-state BLI sensor response: 0.007742
[2]; 6.67 uM
  steady-state BLI sensor response: 0.01053
[2]; 20 uM
  steady-state BLI sensor response: 0.00593
[3]; Figure 7A source data
  IC50: 59 nM
[3]; experimental activity, read-out: EC50
  EC50: 59 nM
[3]; read-out: EC50 in cell-based anti-MeV assays
  EC50: 70 to 230 nM
[4]
  EC50: 200 nM
[4]; cpd concentration 0.009145
  MeV inhibition, normalized reporter signal (Figure 5B): 105.005 and 86.0196
[4]; cpd concentration 0.027435
  MeV inhibition, normalized reporter signal (Figure 5B): 126.572 and 81.3143
[4]; cpd concentration 0.082305
  MeV inhibition, normalized reporter signal (Figure 5B): 101.803 and 75.4494
[4]; cpd concentration 0.246914
  MeV inhibition, normalized reporter signal (Figure 5B): 43.9689 and 25.1431
[4]; cpd concentration 0.740741
  MeV inhibition, normalized reporter signal (Figure 5B): 3.4563 and 3.061
[4]; cpd concentration 2.22222
  MeV inhibition, normalized reporter signal (Figure 5B): 0.8619 and 1.175
[4]; cpd concentration 6.66667
  MeV inhibition, normalized reporter signal (Figure 5B): 0.4673 and 0.8278
[5]; 0.2 μM or 0.8 μM, 4 hours after infection, recMeV-Anc MOI 3
  MeV P mRNA levels: significantly decreased; also recorded: dose-dependently reduced
[5]; 0.2 µM
  Transcription gradient, H mRNA, Predicted (LS) mean 2: 0.1422
  Transcription gradient, L mRNA, Predicted (LS) mean 2: 0.005639
  Transcription gradient, P mRNA, Predicted (LS) mean 2: 1.063
[5]; 0.8 µM
  Transcription gradient, H mRNA, Predicted (LS) mean 2: 0.1249
  Transcription gradient, L mRNA, Predicted (LS) mean 2: 0.007941
  Transcription gradient, P mRNA, Predicted (LS) mean 2: 1.011
[6]
  remaining activity at 0.005 µM: 97%
